Assay results: paper PMC11062922 (Nature Chemical Biology, 2023)

Tests used:
ERBB2 = ERBB2 (2nd target, 2nd value); ref chemicalprobes.org; cited from earlier work
PRKACB = molecular target: T1, PRKACB (Homo sapiens, UniProt P22694); test: Kinobeads full dose-response competition binding: PRKACB; conditions: Gene Name PRKACB
T1 construct: endogenous in cells

PRKACG = molecular target: T2, PRKACG (Homo sapiens, UniProt P22612); test: Kinobeads full dose-response competition binding: PRKACG; conditions: Gene Name PRKACG
T2 construct: endogenous in cells
T2 sequence (P22612 whole entry): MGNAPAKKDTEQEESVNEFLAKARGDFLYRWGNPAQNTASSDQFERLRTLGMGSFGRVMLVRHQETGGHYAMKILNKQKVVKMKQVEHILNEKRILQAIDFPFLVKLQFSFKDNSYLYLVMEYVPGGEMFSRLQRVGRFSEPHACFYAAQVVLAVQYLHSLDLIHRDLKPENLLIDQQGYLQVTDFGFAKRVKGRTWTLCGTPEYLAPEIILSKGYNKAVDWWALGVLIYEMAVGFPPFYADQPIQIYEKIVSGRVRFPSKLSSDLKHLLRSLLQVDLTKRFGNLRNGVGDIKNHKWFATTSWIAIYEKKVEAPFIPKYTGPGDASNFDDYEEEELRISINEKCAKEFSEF

[1] = molecular target: T3, endogenous kinases and other proteins enriched by Kinobeads from mixed lysates of K-562, COLO-205, MV-4-11, SK-N-BE(2) and OVCAR-8 (Homo sapiens, UniProt P49759); test: Kinobeads competition binding profiling, two doses (100 nM and 1 µM); conditions: CLK1;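 note: inhibitor preincubated 45 min at 4 °C in cell lysate, then bead pulldown. Bound protein quantified by label-free mass spectrometry relative to DMSO vehicle control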
T3 construct: endogenous in cells

[2] = molecular target: T4, endogenous kinases and other proteins enriched by Kinobeads from mixed lysates of K-562, COLO-205, MV-4-11, SK-N-BE(2) and OVCAR-8 (Homo sapiens, UniProt P49760); test: as above; conditions: CLK2
T4 construct: endogenous in cells
T4 sequence (P49760 whole entry): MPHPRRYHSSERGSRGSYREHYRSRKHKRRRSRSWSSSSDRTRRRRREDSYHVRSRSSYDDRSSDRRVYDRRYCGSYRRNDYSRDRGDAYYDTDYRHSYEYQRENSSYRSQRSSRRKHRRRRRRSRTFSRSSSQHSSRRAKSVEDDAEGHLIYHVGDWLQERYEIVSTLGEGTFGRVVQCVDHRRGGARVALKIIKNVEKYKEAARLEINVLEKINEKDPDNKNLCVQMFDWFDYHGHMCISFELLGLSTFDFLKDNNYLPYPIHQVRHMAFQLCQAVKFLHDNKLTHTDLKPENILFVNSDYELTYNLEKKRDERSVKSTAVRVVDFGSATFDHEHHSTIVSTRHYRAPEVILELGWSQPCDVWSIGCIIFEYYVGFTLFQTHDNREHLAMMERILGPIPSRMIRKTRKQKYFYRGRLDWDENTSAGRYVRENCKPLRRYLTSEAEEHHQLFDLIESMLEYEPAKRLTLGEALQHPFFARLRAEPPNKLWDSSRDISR

[3] = molecular target: T5, endogenous kinases and other proteins enriched by Kinobeads from mixed lysates of K-562, COLO-205, MV-4-11, SK-N-BE(2) and OVCAR-8 (Homo sapiens, UniProt P51956); test: as above; conditions: NEK3
T5 construct: endogenous in cells

[4] = molecular target: T6, endogenous kinases and other proteins enriched by Kinobeads from mixed lysates of K-562, COLO-205, MV-4-11, SK-N-BE(2) and OVCAR-8 (Homo sapiens, UniProt P54646); test: as above; conditions: AMPK-alpha2
T6 construct: endogenous in cells
T6 sequence (P54646 whole entry): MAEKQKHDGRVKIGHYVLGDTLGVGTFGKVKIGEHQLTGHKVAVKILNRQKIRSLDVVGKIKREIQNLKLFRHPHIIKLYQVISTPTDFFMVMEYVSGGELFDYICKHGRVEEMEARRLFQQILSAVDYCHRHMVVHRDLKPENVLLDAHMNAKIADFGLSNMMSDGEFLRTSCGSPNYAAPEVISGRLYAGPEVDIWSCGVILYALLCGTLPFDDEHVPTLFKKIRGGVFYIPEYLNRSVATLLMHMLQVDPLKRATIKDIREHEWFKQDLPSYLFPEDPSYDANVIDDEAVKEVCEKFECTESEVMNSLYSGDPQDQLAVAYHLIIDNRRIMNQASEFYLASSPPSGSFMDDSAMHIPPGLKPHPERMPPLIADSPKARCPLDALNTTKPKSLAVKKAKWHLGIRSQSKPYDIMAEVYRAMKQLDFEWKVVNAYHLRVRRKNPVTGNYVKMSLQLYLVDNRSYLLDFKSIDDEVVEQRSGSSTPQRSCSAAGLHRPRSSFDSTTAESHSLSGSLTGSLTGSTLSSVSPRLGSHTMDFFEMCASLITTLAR

[5] = molecular target: T7, endogenous kinases and other proteins enriched by Kinobeads from mixed lysates of K-562, COLO-205, MV-4-11, SK-N-BE(2) and OVCAR-8 (Homo sapiens, UniProt P54762); test: as above; conditions: EPHB1
T7 construct: endogenous in cells

[6] = molecular target: T8, endogenous kinases and other proteins enriched by Kinobeads from mixed lysates of K-562, COLO-205, MV-4-11, SK-N-BE(2) and OVCAR-8 (Homo sapiens, UniProt Q16584); test: as above; conditions: MLK3
T8 construct: endogenous in cells

[7] = molecular target: T9, endogenous kinases and other proteins enriched by Kinobeads from mixed lysates of K-562, COLO-205, MV-4-11, SK-N-BE(2) and OVCAR-8 (Homo sapiens, UniProt Q9H2G2); test: as above; conditions: SLK
T9 construct: endogenous in cells

[8] = molecular target: T10, endogenous kinases and other proteins enriched by Kinobeads from mixed lysates of K-562, COLO-205, MV-4-11, SK-N-BE(2) and OVCAR-8 (Homo sapiens, UniProt Q9HC98); test: as above; conditions: NEK6
T10 construct: endogenous in cells

[9] = molecular target: T11, endogenous kinases and other proteins enriched by Kinobeads from mixed lysates of K-562, COLO-205, MV-4-11, SK-N-BE(2) and OVCAR-8 (Homo sapiens, UniProt Q9Y6R4); test: as above; conditions: MAP3K4
T11 construct: to maximize the representation of endogenous proteins; endogenous in cells

[10] = molecular target: T12, endogenous kinases and other proteins enriched by Kinobeads from mixed lysates of K-562, COLO-205, MV-4-11, SK-N-BE(2) and OVCAR-8 (Homo sapiens, UniProt P07948); test: as above; conditions: read-out: Lestaurtinib Drugmatrix value (apparent Kd), Gene Name LYN; target LYN; each column = one Lestaurtinib control run_replicate
T12 construct: endogenous in cells

[11] = molecular target: T13, endogenous kinases and other proteins enriched by Kinobeads from mixed lysates of K-562, COLO-205, MV-4-11, SK-N-BE(2) and OVCAR-8 (Homo sapiens, UniProt Q13188); test: as above; conditions: read-out: Lestaurtinib Drugmatrix value, Gene Name STK3; target STK3; one Lestaurtinib control experiment/replicate (R1-R3)
T13 construct: endogenous in cells

[12] = molecular target: T14, endogenous kinases and other proteins enriched by Kinobeads from mixed lysates of K-562, COLO-205, MV-4-11, SK-N-BE(2) and OVCAR-8 (Homo sapiens, UniProt Q15569); test: as above; conditions: read-out: Lestaurtinib Drugmatrix value, Gene Name TESK1; target TESK1; one Lestaurtinib control experiment/replicate (R1-R3)
T14 construct: endogenous in cells
T14 sequence (Q15569 whole entry): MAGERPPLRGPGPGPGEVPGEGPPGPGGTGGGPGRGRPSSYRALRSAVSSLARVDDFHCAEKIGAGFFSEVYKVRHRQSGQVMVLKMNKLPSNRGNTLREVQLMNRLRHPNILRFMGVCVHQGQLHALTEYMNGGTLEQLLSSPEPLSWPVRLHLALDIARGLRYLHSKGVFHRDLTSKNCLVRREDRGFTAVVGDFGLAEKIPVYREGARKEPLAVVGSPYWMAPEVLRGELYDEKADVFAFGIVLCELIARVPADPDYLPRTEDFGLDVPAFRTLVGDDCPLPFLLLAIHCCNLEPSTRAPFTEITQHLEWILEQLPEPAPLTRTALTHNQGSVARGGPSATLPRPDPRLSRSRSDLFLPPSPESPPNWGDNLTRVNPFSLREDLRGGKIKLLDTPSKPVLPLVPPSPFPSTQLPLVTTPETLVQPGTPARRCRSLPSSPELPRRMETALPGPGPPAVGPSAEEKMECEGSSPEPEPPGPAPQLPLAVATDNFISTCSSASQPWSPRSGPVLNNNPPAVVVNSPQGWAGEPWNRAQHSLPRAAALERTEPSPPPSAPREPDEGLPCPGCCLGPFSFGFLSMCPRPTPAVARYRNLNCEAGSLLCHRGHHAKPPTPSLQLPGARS

BMPR1B = molecular target: T15, BMPR1B (Homo sapiens, UniProt O00238); test: Kinobeads two-dose competition binding: BMPR1B; conditions: read-out: Lestaurtinib Drugmatrix value, Gene Name BMPR1B
T15 construct: endogenous in cells

PIK3CA = molecular target: T16, PIK3CA (Homo sapiens, UniProt P42336); test: Kinobeads competition binding, Lestaurtinib control replicates: PIK3CA; conditions: read-out: Lestaurtinib Drugmatrix value; Gene Name PIK3CA; one column per experiment number and replicate (R1-R3)
T16 construct: a mixture of lysates from five cancer cell lines; endogenous in cells
T16 sequence (P42336 whole entry): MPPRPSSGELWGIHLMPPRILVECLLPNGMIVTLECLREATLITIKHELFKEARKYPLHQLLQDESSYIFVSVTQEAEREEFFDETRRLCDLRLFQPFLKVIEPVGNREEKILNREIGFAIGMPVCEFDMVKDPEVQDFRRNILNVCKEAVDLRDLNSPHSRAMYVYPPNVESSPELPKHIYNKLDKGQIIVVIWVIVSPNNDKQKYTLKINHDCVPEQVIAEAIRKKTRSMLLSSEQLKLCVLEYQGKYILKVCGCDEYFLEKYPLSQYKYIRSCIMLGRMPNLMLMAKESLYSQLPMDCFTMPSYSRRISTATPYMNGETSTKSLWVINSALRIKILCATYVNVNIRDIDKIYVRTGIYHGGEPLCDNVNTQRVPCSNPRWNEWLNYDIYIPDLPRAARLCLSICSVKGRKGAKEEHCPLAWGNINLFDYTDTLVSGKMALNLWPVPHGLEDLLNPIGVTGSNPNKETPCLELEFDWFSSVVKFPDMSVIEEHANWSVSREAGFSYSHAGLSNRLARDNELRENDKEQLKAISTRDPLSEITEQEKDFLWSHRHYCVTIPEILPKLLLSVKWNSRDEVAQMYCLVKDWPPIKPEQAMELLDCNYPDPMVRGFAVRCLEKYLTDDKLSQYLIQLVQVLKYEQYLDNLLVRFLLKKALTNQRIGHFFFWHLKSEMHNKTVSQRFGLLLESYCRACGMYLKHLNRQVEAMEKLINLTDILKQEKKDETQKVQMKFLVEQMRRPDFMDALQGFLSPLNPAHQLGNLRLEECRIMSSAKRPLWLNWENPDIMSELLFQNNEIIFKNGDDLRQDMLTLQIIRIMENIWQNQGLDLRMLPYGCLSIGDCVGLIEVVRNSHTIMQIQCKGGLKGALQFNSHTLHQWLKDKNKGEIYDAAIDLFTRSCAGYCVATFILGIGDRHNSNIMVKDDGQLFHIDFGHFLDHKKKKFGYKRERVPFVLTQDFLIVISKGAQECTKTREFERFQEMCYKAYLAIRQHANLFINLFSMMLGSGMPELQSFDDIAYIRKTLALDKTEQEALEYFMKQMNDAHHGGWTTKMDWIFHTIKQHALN
T16 sequence (P27986 whole entry partner): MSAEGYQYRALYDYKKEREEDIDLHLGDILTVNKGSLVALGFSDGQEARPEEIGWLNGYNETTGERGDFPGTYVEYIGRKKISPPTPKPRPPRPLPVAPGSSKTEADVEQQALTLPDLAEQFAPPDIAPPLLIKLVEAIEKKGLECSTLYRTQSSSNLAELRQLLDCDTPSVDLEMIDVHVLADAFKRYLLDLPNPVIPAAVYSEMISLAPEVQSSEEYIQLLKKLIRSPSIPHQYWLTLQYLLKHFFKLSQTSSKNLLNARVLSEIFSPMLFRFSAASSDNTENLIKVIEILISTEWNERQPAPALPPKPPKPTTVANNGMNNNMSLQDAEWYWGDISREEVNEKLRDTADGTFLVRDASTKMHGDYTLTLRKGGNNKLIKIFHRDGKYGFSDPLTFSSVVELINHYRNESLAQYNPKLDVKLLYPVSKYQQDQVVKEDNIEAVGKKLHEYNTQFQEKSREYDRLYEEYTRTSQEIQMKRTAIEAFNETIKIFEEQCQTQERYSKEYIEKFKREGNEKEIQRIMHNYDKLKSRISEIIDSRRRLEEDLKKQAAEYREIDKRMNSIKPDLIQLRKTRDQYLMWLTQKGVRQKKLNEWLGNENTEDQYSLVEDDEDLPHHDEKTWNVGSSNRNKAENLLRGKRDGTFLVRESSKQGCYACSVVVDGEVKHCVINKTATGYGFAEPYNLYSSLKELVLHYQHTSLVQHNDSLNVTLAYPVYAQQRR

MAPK14 = molecular target: T17, MAPK14 (Homo sapiens, UniProt Q16539); test: Kinobeads full dose-response competition binding: MAPK14; conditions: Gene Name MAPK14
T17 construct: endogenous in cells
T17 sequence (Q16539 whole entry): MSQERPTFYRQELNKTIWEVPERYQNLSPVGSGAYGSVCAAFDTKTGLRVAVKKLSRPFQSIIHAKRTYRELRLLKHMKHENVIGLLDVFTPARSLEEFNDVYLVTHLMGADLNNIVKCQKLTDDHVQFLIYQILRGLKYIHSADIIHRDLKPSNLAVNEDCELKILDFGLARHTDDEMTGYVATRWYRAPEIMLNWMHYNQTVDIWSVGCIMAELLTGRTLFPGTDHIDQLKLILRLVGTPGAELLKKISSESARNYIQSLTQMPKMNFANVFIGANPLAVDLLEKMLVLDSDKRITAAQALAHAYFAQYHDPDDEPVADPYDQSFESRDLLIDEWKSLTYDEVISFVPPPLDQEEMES

TGFBR2 = molecular target: T18, TGFBR2 (Homo sapiens, UniProt P37173); test: Kinobeads full dose-response competition binding: TGFBR2; conditions: Gene Name TGFBR2
T18 construct: endogenous in cells
T18 sequence (P37173 23-567): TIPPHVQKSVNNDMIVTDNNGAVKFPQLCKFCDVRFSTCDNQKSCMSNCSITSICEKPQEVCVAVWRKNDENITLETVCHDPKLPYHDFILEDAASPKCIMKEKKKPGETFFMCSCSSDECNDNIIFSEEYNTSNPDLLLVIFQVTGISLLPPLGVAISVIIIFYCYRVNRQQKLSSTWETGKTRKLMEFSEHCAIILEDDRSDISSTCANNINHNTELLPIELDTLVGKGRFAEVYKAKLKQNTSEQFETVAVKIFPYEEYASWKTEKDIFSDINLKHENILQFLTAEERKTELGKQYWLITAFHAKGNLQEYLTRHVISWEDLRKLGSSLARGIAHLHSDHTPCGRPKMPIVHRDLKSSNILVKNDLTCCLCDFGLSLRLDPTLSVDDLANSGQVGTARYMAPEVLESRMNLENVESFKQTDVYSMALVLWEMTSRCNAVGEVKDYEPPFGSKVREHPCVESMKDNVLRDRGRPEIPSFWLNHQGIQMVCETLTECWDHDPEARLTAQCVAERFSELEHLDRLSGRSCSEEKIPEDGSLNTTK

[13] = EC50 with Correction, doses in nM, read-out: apparent Kd
[14] = eight-dose curve fit, doses in nM

## CN(C)C/C=C/C(=O)Nc1cc2c(Nc3ccc(F)c(Cl)c3)ncnc2cc1O[C@H]1CCOC1 [Afatinib]
ERBB2
  Potency value: 0.5 nM, 14 nM

## CCn1c(-c2nonc2N)nc2c(C#CC(C)(C)O)nc(OCCN)cc21 [GSK902056A]
PRKACB; 0.3nM compound, DMSO = 1
  Relative Intensity 0.3nM: 0.9369
PRKACB; 1nM compound, DMSO = 1
  Relative Intensity 1nM: 1.09
PRKACB; 3nM compound, DMSO = 1
  Relative Intensity 3nM: 1.112
PRKACB; 10nM compound, DMSO = 1
  Relative Intensity 10nM: 0.9825
PRKACB; 30nM compound, DMSO = 1
  Relative Intensity 30nM: 0.9287
PRKACB; 100nM compound, DMSO = 1
  Relative Intensity 100nM: 0.758
PRKACB; 300nM compound, DMSO = 1
  Relative Intensity 300nM: 0.7526
PRKACB; 1000nM compound, DMSO = 1
  Relative Intensity 1000nM: 0.5592
PRKACB; [13]
  Kd: 145 nM
PRKACB; [14]
  EC50: 145 nM

## CCn1c(-c2nonc2N)nc2c(C#CC(C)(C)O)nc(OCCNC)cc21 [GSK949675A]
PRKACG; 0.3nM compound, DMSO = 1
  Relative Intensity 0.3nM: 0.6931
PRKACG; 1nM compound, DMSO = 1
  Relative Intensity 1nM: 0.8057
PRKACG; 3nM compound, DMSO = 1
  Relative Intensity 3nM: 0.9707
PRKACG; 10nM compound, DMSO = 1
  Relative Intensity 10nM: 0.8006
PRKACG; 30nM compound, DMSO = 1
  Relative Intensity 30nM: 0.7952
PRKACG; 100nM compound, DMSO = 1
  Relative Intensity 100nM: 0.9305
PRKACG; 300nM compound, DMSO = 1
  Relative Intensity 300nM: 0.645
PRKACG; 1000nM compound, DMSO = 1
  Relative Intensity 1000nM: 0.4141
PRKACG; [13]
  Kd: 262 nM
PRKACG; [14]
  EC50: 303 nM

## COc1cc(Nc2ncc3c(C)nc(-c4cc5ccccc5[nH]4)n3n2)cc(OC)c1OC [GW869516X]
[1]
  Kinobeads Data: no target
[2]
  Kinobeads Data: no target
[3]
  Kinobeads Data: no target
[4]
  Kinobeads Data: no target
[5]
  Kinobeads Data: no target
[6]
  Kinobeads Data: no target
[7]
  Kinobeads Data: no target
[8]
  Kinobeads Data: no target
[9]
  Kinobeads Data: no target

## C[C@]12O[C@H](C[C@]1(O)CO)n1c3ccccc3c3c4c(c5c6ccccc6n2c5c31)CNC4=O [Lestaurtinib]
[10]
  potency estimated from few doses: 808 nM
[11]
  potency estimated from few doses: 39.1 nM
[12]
  potency estimated from few doses: 622 nM
BMPR1B
  potency estimated from few doses: 737 nM
PIK3CA
  potency estimated from few doses: 156 nM

## NCc1ccc(-c2nc(-c3ccncc3)c(-c3ccc(Cl)c(O)c3)[nH]2)cc1 [SB-476429-A]
MAPK14; 0.3nM compound, DMSO = 1
  Relative Intensity 0.3nM: 1.121
MAPK14; 1nM compound, DMSO = 1
  Relative Intensity 1nM: 0.9468
MAPK14; 3nM compound, DMSO = 1
  Relative Intensity 3nM: 1.026
MAPK14; 10nM compound, DMSO = 1
  Relative Intensity 10nM: 0.8638
MAPK14; 30nM compound, DMSO = 1
  Relative Intensity 30nM: 0.6876
MAPK14; 100nM compound, DMSO = 1
  Relative Intensity 100nM: 0.6751
MAPK14; 300nM compound, DMSO = 1
  Relative Intensity 300nM: 0.325
MAPK14; 1000nM compound, DMSO = 1
  Relative Intensity 1000nM: 0.2
MAPK14; [13]
  Kd: 174 nM
MAPK14; [14]
  EC50: 174 nM
TGFBR2; 0.3nM compound, DMSO = 1
  Relative Intensity 0.3nM: 0.9776
TGFBR2; 1nM compound, DMSO = 1
  Relative Intensity 1nM: 1.003
TGFBR2; 3nM compound, DMSO = 1
  Relative Intensity 3nM: 1.034
TGFBR2; 10nM compound, DMSO = 1
  Relative Intensity 10nM: 1.093
TGFBR2; 30nM compound, DMSO = 1
  Relative Intensity 30nM: 0.9102
TGFBR2; 100nM compound, DMSO = 1
  Relative Intensity 100nM: 0.8621
TGFBR2; 300nM compound, DMSO = 1
  Relative Intensity 300nM: 0.7152
TGFBR2; 1000nM compound, DMSO = 1
  Relative Intensity 1000nM: 0.41
TGFBR2; [13]
  Kd: 767 nM
TGFBR2; [14]
  EC50: 871 nM
